We go through 3 substances from patent US20210332161A1, “CHLORINATED DERIVATIVE OF HYALURONIC ACID, METHOD OF PREPARATION THEREOF, A COMPOSITION CONTAINING THE DERIVATIVE, AND USE THEREOF” (CONTIPRO A.S., priority 2018, published 2021).

Where “and” joins values, the source holds several entries; their conditions need not be identical. Equal values may be shown once.

For one series, the system named is CVB3 (Nancy). Briefly: Testing of antiviral activity based on the plaque reduction. It counts as cell-based. The settings on record: for PFU on PD, Average: average of 5 repeats; for PFU on PD, Average / PFU on PD: VERO cells; for PFU on PD: single Petri dishes (5 repeats), 5 hours incubation, listed as HA chloramide. Here is the method:
(§1) Number of repeats −5, tested substance prepared according to Example 19, virus subject to testing: CVB3 (Nancy) in the concentration of 3×10E7, 5 PFU/ml, VERO cellular substrate
(§2) After having been subject to 10^7-fold dilution in the volume of 1.5 ml, the virus was adsorbed on the cell substrate in Petri dishes for 30 minutes. The negative control contained PBS without viruses. Afterwards, the virus was removed by suction and the cells were interlayered by the tested substance (or by HA and PBS contained in the negative control materials), incubation at 37° C. and in the presence of 5% of CO2, for 5 hours. The cells were washed with PBS and covered by a layer of a medium containing EMEM supplemented with 5% of inactivated FBS and 0.75% of agarose. The incubation in an environment containing 5% of CO2 at 37° C. for 4 days. Subsequently, the medium was removed, the cells were stained by a crystal violet dye and the counts of plaques were determined. During the test, the antiviral activity was proportional to the reduction of the number of plaques.

The subject of another series is VERO cellular substrate. Description: Plaque test groups without virus (examination of the cells / of toxicity). It is filed as cell-based, Cercopithecus aethiops. The conditions noted are these: 1% in PBS, no virus. The method, then:
as §1, §2

Series [1] can be described thus: Stability of hyaluronan chloramide on standing (DS by NMR). It is filed as physicochemical. The settings on record: initial DS 85%. The method, then:
5 g of hyaluronan (Mw 2200 kg·mol^−1) were dissolved in 250 ml of distilled water. Subsequently, 2 ml of acetic acid were added and the solution was stirred at the temperature of 20° C. for 15 minutes. Then, a sodium salt of dichloroisocyanuric acid in the amount of 3.2 g (1 eq.) was added. Then, the mixture was stirred at a temperature of 20° C. for 48 hours. Subsequently, the mixture was precipitated by 2.5 litres of isopropanol and filtered. The solid portion was washed with 2 litres of isopropanol, whereupon it was vacuum dried for 20 hours. DS 85% (determined from NMR). The NMR solution (7 mg of the product in 0.7 ml of D2O) was measured after another 5 days of standing at 20° C. The DS value was determined as 84%. The solid portion in the form of powder was let stand at 20° C. for 100 days and after that the sample was dissolved in D2O. The DS value was determined as 84%.

Where [2] appears, read: single Petri dishes (5 repeats).

With “Hyaluronic acid [HA, reference compound]”, the “PFU on PD, Average” value in the series on CVB3 (Nancy) (1% in PBS) is reported as 10.4 PFU.
Turning to Hyaluronan Chloramide [Example 19], in the series with VERO cellular substrate (average of 5 repeats), the “PFU on PD, Average, Examination of the cells with HA” value came out at 0 PFU and the “PFU on PD, Average, Examination of toxicity” value stood at 0 PFU. In the series with VERO cellular substrate (setting [2]), the “PFU on PD, Examination of the cells with HA” value turned out to be 0 PFU and the “PFU on PD, Examination of toxicity” value is 0 PFU. In the series on CVB3 (Nancy) (0.1% in PBS), the “PFU on PD, Average” value is given as 7.8 PFU; the “PFU on PD” value is 5 PFU and 7 PFU and 10 PFU and 8 PFU and 9 PFU. Moreover, in the series with CVB3 (Nancy) (0.5% in PBS), the “PFU on PD, Average” value stood at 7.2 PFU; the “PFU on PD” value is 8 PFU and 5 PFU and 7 PFU. Further, the “PFU on PD, Average” value in the series on CVB3 (Nancy) (1% in PBS) is listed as 2.6 PFU. The “inhibition of the viral growth compared to the standard with HA” value in the series on CVB3 (Nancy) (Tests 1, 2 and 3 (0.1, 0.5, 1% in PBS), more efficient with increasing concentration) was “inhibition of the viral growth”.
In the case of Hyaluronan Chloramide [Example 16], in series [1] (7 mg of product in 0.7 ml D2O, another 5 days of standing at 20° C.), the “DS value of the NMR solution after standing” value came out at 84%. In series [1] (powder let stand at 20° C. for 100 days, then dissolved in D2O), the “DS value of the solid powder after standing” value is 84%.
